Key:
hP2X3R = target: T1, hP2X3R (Homo sapiens, UniProt P56373); experiment: Calcium influx (Fluo-4) evoked by α,β-meATP in HEK293 cells stably expressing hP2X3R; format: cell-based; conditions: for IC50: antagonistic activity, HEK293 cells expressing hP2X3R, agonist at EC70; for Decrease of P2X3R antagonistic activity compared with KCB-77033: relative to hit compound KCB-77033
T1 construct: expressed in transfected cells
T1 sequence (P56373 1-397): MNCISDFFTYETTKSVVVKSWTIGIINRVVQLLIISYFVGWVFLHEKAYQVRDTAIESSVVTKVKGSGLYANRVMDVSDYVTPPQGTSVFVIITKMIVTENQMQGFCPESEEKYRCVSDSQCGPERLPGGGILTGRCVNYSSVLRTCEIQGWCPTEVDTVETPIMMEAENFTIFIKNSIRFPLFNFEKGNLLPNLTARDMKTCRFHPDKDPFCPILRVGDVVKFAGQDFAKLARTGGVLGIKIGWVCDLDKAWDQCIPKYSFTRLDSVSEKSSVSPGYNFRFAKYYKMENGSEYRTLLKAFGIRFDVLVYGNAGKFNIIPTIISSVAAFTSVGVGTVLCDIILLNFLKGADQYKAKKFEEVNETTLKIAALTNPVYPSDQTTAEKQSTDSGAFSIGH
Procedure: For the evaluation of P2XR activities, a cell-based assay system was employed to measure the level of fluorescence emission, based on Fluo-4 dye, during Ca^2+ influx evoked by αβmeATP in HEK293 cells stably expressing hP2X2/3R and hP2X3R. The library containing 8364 representative compounds for the screening of antagonistic activity was provided by the Korea Chemical Bank. The antagonistic activities were evaluated in the presence of P2X3R agonist of the concentration for EC70 value (200–250 nM for hP2X3R and 1–4 μM for hP2X2/3R highly expressed cell lines), and AF353 was used as the positive control antagonist for comparison. For the first round of screening, a single concentration (25 μM) of each library compound was tested to identify initial hit compounds, which were subsequently validated using both concentrations of 25 and 10 μM. Using a cut-off threshold of higher than 50% antagonistic activity and after confirming dose-dependency, 12 main hit compounds were selected.
3.4. Cell-Based Assay: Measurement of Calcium Influx by Fluorescence-Based Fluo-4 Dye Uptake in HEK293 Cells Expressing hP2X2/3 and hP2X3 Receptors
Human P2X3-expressing HEK293 cells were grown in DMEM supplemented with 10% fetal bovine serum and 1% antibiotic–antimycotic as a monolayer culture at 37 °C in a humidified atmosphere of 5% CO2. The 96-well black plates used in the experiments were prepared by coating them with 1× poly-D-lysine (A3890401, Thermo-Fisher Scientific Korea, Seoul, South Korea). An aliquot of 40 μL 1× poly-D-lysine was used to treat each of the wells in a flat orientation. After leaving the plates for at least 4 h to absorb the poly-D-lysine, the plates were allowed to dry for at least 6 h. The DMEM used in the culture of HEK293 cells was removed from the dish, followed by application of 3 mL 1× PBS for washing. Removal of 1× PBS was followed by application of 1 mL trypsin/EDTA, and the cells were collected by centrifugation at 1200 rpm for 2 min. The supernatant was removed, and 1 mL fresh DMEM added. The cells were resuspended in media and plates prepared with 4.8 × 10^4 cells/well in 56 μL/well. After 18 h of cell culture in the 96-well black plate, 56 μL of Fluo-4 dye (Fluo-4 Direct^TM Calcium Assay Kit, F10471, Invitrogen, Thermo-Fisher Scientific Korea, Seoul, South Korea) was added to each well, prepared according to the manufacturer’s protocol, and incubated for 50 min~1 h under culturing conditions. Then, 12.4 μL of the appropriate compound solution was added to each well, and the positive control was AF353 (A1612, Sigma Aldrich Korea, Seoul, South Korea) and the negative control was 5% DMSO. Plates were incubated at room temperature and sealed to avoid interference from light for 50 min~1 h. Flexstation 3 and its software provided by Molecular Devices was used for the measurement of fluorescence in real time of treatments using prepared α,β-meATP (M6517, Sigma Aldrich) solution to evoke calcium influx and increased cell membrane potential.
For the analysis of antagonistic activities, all data were calculated by Origin Pro 9.1 software provided by Originlab and the fitting of graphs was proceeded by the growth/sigmoidal and hill1 process within no weights for data selections. For the analysis of the behavioral assessments of pain models, all data are expressed as mean ± SEM. The dose–response data are presented as percentages of the maximum possible effect. Statistical significance was analyzed by independent t-test. The criterion for statistical significance was p < 0.05. The statistical analysis was performed using SPSS 25.0 software (IBM Corp., Armonk, NY, USA).

[1] = Metabolic stability in microsomal fraction, rat; format: in vitro ADME; conditions: Table 1
[2] = Metabolic stability in microsomal fraction, mouse; format: in vitro ADME; conditions: mouse; Table 1
[3] = Metabolic stability in microsomal fraction, human; format: in vitro ADME; conditions: Table 1

Compound | IC50 (hP2X3R) [nM] | also measured
O=C1C(Nc2ccc(F)c(Br)c2)=C(Cl)C(=O)c2[nH]c(C(F)(F)F)nc21 [11i, 5-((3-Bromo-4-fluorophenyl)amino)-6-chloro-2-(trifluoromethyl)-1H-benzo[d]imidazole-4,7-dione] | 1040 ± 221 | 
O=C1C(Nc2ccc(Cl)cc2I)=C(Cl)C(=O)c2[nH]c(C(F)(F)F)nc21 [11k, 6-Chloro-5-((4-chloro-2-iodophenyl)amino)-2-(trifluoromethyl)-1H-benzo[d]imidazole-4,7-dione] | 774 ± 166 | 
O=C1C(Nc2ccc(Cl)c(Cl)c2)=C(Cl)C(=O)c2[nH]c(C(F)(F)F)nc21 [11d, 6-Chloro-5-((3,4-dichlorophenyl)amino)-2-(trifluoromethyl)-1H-benzo[d]imidazole-4,7-dione] | 808 ± 75 | 
Cc1nc2c([nH]1)C(=O)C(Cl)=C(Nc1ccc(F)cc1)C2=O [10a, 6-Chloro-5-((4-fluorophenyl)amino)-2-methyl-1H-benzo[d]imidazole-4,7-dione] | 4910 ± 821 | Metabolic Stability Rat (%) [1]: 26.2 ± 3.4%; Decrease of P2X3R antagonistic activity compared with KCB-77033 (hP2X3R): 4–5 fold; Metabolic Stability Mouse (%) [2]: 18.4 ± 2.7%; Metabolic Stability Human (%) [3]: 43.1 ± 4.7%
O=C1C(Cl)=C(Nc2ccc(Cl)cc2)C(=O)c2[nH]c(C(F)(F)F)nc21 [11b, 6-Chloro-5-((4-chlorophenyl)amino)-2-(trifluoromethyl)-1H-benzo[d]imidazole-4,7-dione] | 825 ± 70 | 
O=C1C(Nc2ccc(Br)c(F)c2)=C(Cl)C(=O)c2[nH]c(C(F)(F)F)nc21 [11j, 5-((4-Bromo-3-fluorophenyl)amino)-6-chloro-2-(trifluoromethyl)-1H-benzo[d]imidazole-4,7-dione] | 782 ± 139 | 
O=C1C(Nc2ccc(F)c(Cl)c2)=C(Cl)C(=O)c2[nH]c(C(F)(F)F)nc21 [11f, 6-Chloro-5-((3-chloro-4-fluorophenyl)amino)-2-(trifluoromethyl)-1H-benzo[d]imidazole-4,7-dione] | 703 ± 96 | 
O=C1C(Nc2ccc(F)c(F)c2)=C(Cl)C(=O)c2[nH]c(C(F)(F)F)nc21 [11c, 6-Chloro-5-((3,4-difluorophenyl)amino)-2-(trifluoromethyl)-1H-benzo[d]imidazole-4,7-dione] | 834 ± 117 | 
Cc1nc2c([nH]1)C(=O)C(Cl)=C(Nc1ccc(Cl)cc1)C2=O [10b, 6-Chloro-5-((4-chlorophenyl)amino)-2-methyl-1H-benzo[d]imidazole-4,7-dione] | 3720 ± 731 | Decrease of P2X3R antagonistic activity compared with KCB-77033 (hP2X3R): 4–5 fold
O=C1C(Nc2ccc(Cl)c(F)c2)=C(Cl)C(=O)c2[nH]c(C(F)(F)F)nc21 [11h, 6-Chloro-5-((4-chloro-3-fluorophenyl)amino)-2-(trifluoromethyl)-1H-benzo[d]imidazole-4,7-dione] | 541 ± 103 | 
O=C1C(Cl)=C(Nc2ccc(F)cc2)C(=O)c2[nH]c(C(F)(F)F)nc21 [11a, 6-Chloro-5-((4-fluorophenyl)amino)-2-(trifluoromethyl)-1H-benzo[d]imidazole-4,7-dione] | 1020 ± 111 | Metabolic Stability Rat (%) [1]: >99%; Metabolic Stability Mouse (%) [2]: 95.7 ± 17.2%; Metabolic Stability Human (%) [3]: 81.4 ± 1.9%
O=C1C(Nc2ccc(F)cc2Cl)=C(Cl)C(=O)c2[nH]c(C(F)(F)F)nc21 [11e, 6-Chloro-5-((2-chloro-4-fluorophenyl)amino)-2-(trifluoromethyl)-1H-benzo[d]imidazole-4,7-dione] | 660 ± 113 | 
O=C1C(Nc2ccc(Cl)cc2F)=C(Cl)C(=O)c2[nH]c(C(F)(F)F)nc21 [11g, 6-Chloro-5-((4-chloro-2-fluorophenyl)amino)-2-(trifluoromethyl)-1H-benzo[d]imidazole-4,7-dione] | 526 ± 141 | 

Continued, in another order:

IC50 (hP2X3R) [nM] | Compound | also measured
> 10000 | O=C1C(NC2CCN(C(=O)c3ccc(C(F)(F)F)cc3)CC2)=C(Cl)C(=O)c2[nH]c(C(F)(F)F)nc21 [14k, 6-Chloro-2-(trifluoromethyl)-5-((1-(4-(trifluoromethyl)benzoyl)piperidin-4-yl)amino)-1H-benzo[d]imidazole-4,7-dione] | 
577 ± 66 | O=C1C(NC2CCN(C(=O)c3ccc(Cl)c(Cl)c3)CC2)=C(Cl)C(=O)c2[nH]c(C(F)(F)F)nc21 [14g, 6-Chloro-5-((1-(3,4-dichlorobenzoyl)piperidin-4-yl)amino)-2-(trifluoromethyl)-1H-benzo[d]imidazole-4,7-dione] | 
505 ± 51 | O=C1C(NC2CCN(C(=O)c3ccc(F)c(Cl)c3)CC2)=C(Cl)C(=O)c2[nH]c(C(F)(F)F)nc21 [14i, 6-Chloro-5-((1-(3-chloro-4-fluorobenzoyl)piperidin-4-yl)amino)-2-(trifluoromethyl)-1H-benzo[d]imidazole-4,7-dione] | 
804 ± 91 | O=C1C(NC2CCN(C(=O)c3ccc(Br)cc3)CC2)=C(Cl)C(=O)c2[nH]c(C(F)(F)F)nc21 [14f, 5-((1-(4-Bromobenzoyl)piperidin-4-yl)amino)-6-chloro-2-(trifluoromethyl)-1H-benzo[d]imidazole-4,7-dione] | 
1030 ± 73 | Cc1nc2c([nH]1)C(=O)C(Cl)=C(Nc1ccc(F)c(F)c1)C2=O [KCB-77033] | Metabolic Stability Rat (%) [1]: 3.4 ± 0.1%; Metabolic Stability Mouse (%) [2]: 5.2 ± 1.6%; Metabolic Stability Human (%) [3]: 9.0 ± 1.5%
4440 ± 480 | N#Cc1ccc(C(=O)N2CCC(NC3=C(Cl)C(=O)c4[nH]c(C(F)(F)F)nc4C3=O)CC2)cc1 [14j, 4-(4-((6-Chloro-4,7-dioxo-2-(trifluoromethyl)-4,7-dihydro-1H-benzo[d]imidazol-5-yl)amino)piperidine-1-carbonyl)benzonitrile] | 
864 ± 112 | O=C1C(NC2CCN(C(=O)c3ccccc3)CC2)=C(Cl)C(=O)c2[nH]c(C(F)(F)F)nc21 [14c, 5-((1-Benzoylpiperidin-4-yl)amino)-6-chloro-2-(trifluoromethyl)-1H-benzo[d]imidazole-4,7-dione] | 
979 ± 104 | COC(=O)N1CCC(NC2=C(Cl)C(=O)c3[nH]c(C(F)(F)F)nc3C2=O)CC1 [14a, Methyl-4-((6-chloro-4,7-dioxo-2-(trifluoromethyl)-4,7-dihydro-1H-benzo[d]imidazol-5-yl)amino)piperidine-1-carboxylate] | 
921 ± 117 | CCC(=O)N1CCC(NC2=C(Cl)C(=O)c3[nH]c(C(F)(F)F)nc3C2=O)CC1 [14b, 6-Chloro-5-((1-propionylpiperidin-4-yl)amino)-2-(trifluoromethyl)-1H-benzo[d]imidazole-4,7-dione] | 
450 ± 59 | O=C1C(NC2CCN(C(=O)c3ccc(F)cc3)CC2)=C(Cl)C(=O)c2[nH]c(C(F)(F)F)nc21 [14d, 6-Chloro-5-((1-(4-fluorobenzoyl)piperidin-4-yl)amino)-2-(trifluoromethyl)-1H-benzo[d]imidazole-4,7-dione] | 
481 ± 20 | O=C1C(NC2CCN(C(=O)c3ccc(Cl)cc3)CC2)=C(Cl)C(=O)c2[nH]c(C(F)(F)F)nc21 [14e, 6-Chloro-5-((1-(4-chlorobenzoyl)piperidin-4-yl)amino)-2-(trifluoromethyl)-1H-benzo[d]imidazole-4,7-dione] | 
